This assay concerns the target DNA gyrase (Escherichia coli). Put plainly: Inhibition of supercoiling activity of DNA gyrase in Escherichia coli.

Consider six molecules from BindingDB's records for doi:10.1021/jm9701583 (R.W. Johnson Pharmaceutical Research Institute, 1997).

One may read the IC50 as the point on the concentration scale where inhibition reaches its midpoint. A high value points to weaker potency. As to `CC(c1ccc2c(c1)Nc1ccccc1S2)N(O)C(=O)c1ccccc1-c1ccccc1C(=O)O` (stereo unspecified), half-maximal inhibition (IC50) required 1360 µM.

Turning to `COc1cc(C(C)N(O)C(=O)c2ccccc2-c2ccccc2C(=O)O)cc(OC)c1OC` (stereo unspecified), the concentration for half-maximal inhibition (IC50) is greater than 1100 µM.

Take `CC(c1ccc2oc(-c3ccccc3)cc2c1)N(O)C(=O)c1ccccc1-c1ccccc1C(=O)O` (stereo unspecified): the half-inhibitory concentration (IC50) worked out at 121 µM.

The molecule `CC(c1ccc2c(ccc3ccccc32)c1)N(O)C(=O)c1ccccc1-c1ccccc1C(=O)O` (stereo unspecified) returned a half-inhibitory concentration (IC50) of 205 µM.

In turn, `CC(c1ccccc1)N(O)C(=O)c1ccccc1-c1ccccc1C(=O)O` (stereo unspecified) had an IC50 greater than 1380 µM.

On to `CC(c1ccc(N2CCN(c3ccccc3)CC2)cc1)N(O)C(=O)c1ccccc1-c1ccccc1C(=O)O` (stereo unspecified), for which the 50% inhibitory concentration (IC50) is greater than 958 µM.
